Reference: paper PMC9322052, “Synthesis and Biological Activity Screening of Newly Synthesized Trimethoxyphenyl-Based Analogues as Potential Anticancer Agents” (Molecules, 2022)

Test system: p53
Assay: ELISA quantification of p53 level
Type: cell-based, human
Conditions: HepG2, 1.38 μM (IC50), 48 h
Protocol: Compound 9 was screened for its ability to activate p53 and Bax as well as downregulate the level of Bcl-2 to investigate the mechanistic apoptotic pathway that catalyzed the apoptosis process. HepG2 cells were treated with compound 9 at a concentration equal to its IC50 in μM, and the level of p53, Bax, and Bcl-2 was quantized using ELISA analysis. The results obtained for compound 9 show the increase in the level of p53 and Bax by 8.91- and 4.50-fold, respectively, compared with the negative control samples.
Apoptotic markers (p53, Bax and Bcl-2) were measured in HepG2 cells using ELISA analysis according to the manufacturer’s directions. See Section 3.3.6 in Supplementary Material.
Figure 6 (A) The quantification of p53. (B) The quantification of Bax. (C) The quantification of Bcl-2. HepG2 cells were treated with 1.38 μM of compound 9 for 48 h and apoptotic markers were determined by ELISA assay.
3.3.1. Cytotoxic activity evaluation
To measure the cytotoxic activity of the synthesized derivatives 2a-11 in hepatocel-lular carcinoma (HepG2) cell line (ATCC Cat No. HB-8065) as well as normal human liver cell line HL-7702 (ATCC Cat. No. 77402), cell viability assay was assessed using MTT assay method. […] The color inten-sity of the formazan product, which represents the growth condition of the cells, is quan-tified by using an ELISA plate reader (EXL 800, USA) at 570 nm absorbance. […]

COc1ccc(C2=N/C(=C\c3cc(OC)c(OC)c(OC)c3)C(=O)NN2c2ccccc2)cc1OC [Compound 9, (Z)-3-(3,4-Dimethoxyphenyl)-2-Phenyl-5-(3,4,5-Trimethoxybenzylidene)-1,2-Dihydro-1,2,4-Triazin-6(5H)-one]
increase in level of p53 compared with negative control: 8.91 fold
